In patent US7928140B2, “Benzothiazole PI3 kinase modulators for cancer treatment” (Amgen Inc., priority 2007, dated 2011):
Read-outs that look alike come from different tables or passages of the source.

Legend:
PI3K α = target: T1, PI3K α (Homo sapiens, UniProt P42336); test: In vitro PI3 kinase enzyme assay (alpha), ATP loss, bioluminescence; type: biochemical; conditions: read-out: PI3Kα ATP loss IC50;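 also: purified p110α/p85 heterodimer acting on PtdIns(4,5)P2 at room temperature, remaining ATP read by luminescence, inhibition scaled between compound-free wells with and without enzyme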
T1 construct: Full length p110 subunits of PI3K α, β and δ, N-terminally labeled with polyHis tag; polyHis (N); made in house; host or cells: Sf9 insect cells (baculovirus)

PI3K β = target: T2, PI3K β (Homo sapiens, UniProt P42338); test: In vitro PI3 kinase enzyme assay (beta), ATP loss, bioluminescence; type: biochemical; conditions: read-out: PI3Kβ ATP loss IC50;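 also: purified p110β/p85 heterodimer with PtdIns(4,5)P2 as acceptor, incubated at room temperature, leftover ATP read by luminescence, inhibition scaled to compound-free wells with and without enzyme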
T2 construct: Full length p110 subunits of PI3K α, β and δ, N-terminally labeled with polyHis tag; polyHis (N); made in house; host or cells: Sf9 insect cells (baculovirus)
Description: Full length p110 subunits of PI3K α, β and δ, N-terminally labeled with polyHis tag, were co-expressed with p85 in baculovirus expression vectors in sf9 insect cells. P110/p85 heterodimers were purified by sequential Ni-NTA, Q-HP, and Superdex-100 chromatography. Purified α, β and δ isozymes were stored at −20° C. in 20 mM Tris, pH 8, 0.2M NaCl, 50% glycerol, 5 mM DTT, 2 mM Na cholate.
PI3K enzyme assays (alpha, beta, delta and gamma) were performed in 25 mL with the above final concentrations of components in white polypropylene plates (Costar catalogue #3355). Phosphatidyl inositol phosphoacceptor, PtdIns(4,5)P2 (eg. P4508) was obtained from Echelon Biosciences. The ATPase activity of the alpha and gamma isozymes was not greatly stimulated by PtdIns(4,5)P2 under these conditions and was therefore omitted from the assay of these isozymes. Test compounds were dissolved in DMSO and diluted with three-fold serial dilutions. The compound in DMSO (1 μL) was added per test well, and the inhibition relative to reactions containing no compound, with and without enzyme was determined. After assay incubation at RT, the reaction was stopped and residual ATP determined by addition of an equal volume of a commercial ATP bioluminescence kit (Perkin Elmer EasyLite) according to the manufacturer's instructions, and detected using an Analyst GT luminometer.

[1] = test system: phosphorylation of Serine 473 in Akt, HCT 116 human colon carcinoma cells; test: Cell-based phospho-AKT Ser473 assay (MSD sandwich immunoassay, IGF-1 stimulated)
Description: This assay determines the ability of test compounds to inhibit the phosphorylation of […] in Akt using a MSD based sandwich immunoassay (Meso Scale Detection, catalogue # N411CAB-1). […] Prior to the assay cells were detached from the culture flask with trypsin, and re-suspended in complete media to give a final concentration of 1.6×10^5 cells per ml. Aliquots (100 μl) of the HCT116 cell suspension were seeded into each well of a 96 well tissue culture plate (Corning Incorporated COSTAR, catalogue#3595) to give a final density of 16,000 cells per well. Cells were then incubated overnight at 37° C. The following day the cells were treated with serially diluted test compounds and incubated for 2 hours at 37° C. […] As a maximum response control, wells contained 0.5% DMSO in place of test compound. The plates were mixed at 700 rpm for 2 min to ensure even distribution of the test compound and incubated for 2 hours at 37° C. Cells were then stimulated with insulin-like growth factor 1 (Sigma, product #13769) at final concentration of 100 ng/ml for 15 minutes at 37° C. The media was then removed and the cells treated with 80 μl cell-lysis buffer (MSD) containing a cocktail of protease and phosphatase inhibitors for one hour at 4° C. […] The detection antibody was removed and plates were then washed four times with 200 μl per well of Tris wash buffer. An aliquot of 150 μl of diluted MSD read buffer was then applied to each well, and the electrochemiluminescent signal was measured using a MSD SECTORTM plate reader. This instrument measures the intensity of emitted light to determine a quantitative measure of phosphorylated Akt in each well. The dose-response data obtained with each compound were analyzed and the IC50 inhibition of Akt phosphorylation at Ser473 calculated.

[2] = Homo sapiens, HCT-116, HCT 116 cells, read-out: HCT 116 pAKT IC50

T1 sequence (P42336 whole entry, species assumed): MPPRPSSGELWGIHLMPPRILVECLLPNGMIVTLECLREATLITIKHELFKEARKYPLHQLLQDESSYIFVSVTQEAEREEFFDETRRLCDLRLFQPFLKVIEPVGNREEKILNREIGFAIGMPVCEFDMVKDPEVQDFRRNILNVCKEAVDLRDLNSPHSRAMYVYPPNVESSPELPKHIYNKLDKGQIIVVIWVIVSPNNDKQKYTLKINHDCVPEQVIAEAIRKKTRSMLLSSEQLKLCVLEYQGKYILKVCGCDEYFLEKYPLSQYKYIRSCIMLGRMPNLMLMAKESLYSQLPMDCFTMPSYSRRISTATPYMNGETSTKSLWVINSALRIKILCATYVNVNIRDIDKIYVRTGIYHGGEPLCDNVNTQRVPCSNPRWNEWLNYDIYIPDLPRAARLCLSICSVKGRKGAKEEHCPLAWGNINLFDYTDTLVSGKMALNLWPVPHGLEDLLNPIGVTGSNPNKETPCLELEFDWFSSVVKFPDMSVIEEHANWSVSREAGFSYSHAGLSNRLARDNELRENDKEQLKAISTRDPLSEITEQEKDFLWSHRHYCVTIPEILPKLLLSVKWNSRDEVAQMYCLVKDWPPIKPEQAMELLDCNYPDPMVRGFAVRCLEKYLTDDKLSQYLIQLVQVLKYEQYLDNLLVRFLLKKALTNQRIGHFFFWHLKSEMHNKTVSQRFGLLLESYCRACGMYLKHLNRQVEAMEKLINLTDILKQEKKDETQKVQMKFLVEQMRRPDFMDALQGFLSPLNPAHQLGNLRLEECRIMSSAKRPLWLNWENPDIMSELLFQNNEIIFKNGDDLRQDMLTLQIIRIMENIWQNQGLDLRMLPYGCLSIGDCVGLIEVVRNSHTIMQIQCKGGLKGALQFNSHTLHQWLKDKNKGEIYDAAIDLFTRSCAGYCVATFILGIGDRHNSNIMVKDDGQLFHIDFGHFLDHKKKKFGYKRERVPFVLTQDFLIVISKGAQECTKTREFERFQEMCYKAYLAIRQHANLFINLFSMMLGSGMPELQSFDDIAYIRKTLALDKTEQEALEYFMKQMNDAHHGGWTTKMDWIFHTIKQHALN
T1 sequence (P27986 whole entry partner, species assumed): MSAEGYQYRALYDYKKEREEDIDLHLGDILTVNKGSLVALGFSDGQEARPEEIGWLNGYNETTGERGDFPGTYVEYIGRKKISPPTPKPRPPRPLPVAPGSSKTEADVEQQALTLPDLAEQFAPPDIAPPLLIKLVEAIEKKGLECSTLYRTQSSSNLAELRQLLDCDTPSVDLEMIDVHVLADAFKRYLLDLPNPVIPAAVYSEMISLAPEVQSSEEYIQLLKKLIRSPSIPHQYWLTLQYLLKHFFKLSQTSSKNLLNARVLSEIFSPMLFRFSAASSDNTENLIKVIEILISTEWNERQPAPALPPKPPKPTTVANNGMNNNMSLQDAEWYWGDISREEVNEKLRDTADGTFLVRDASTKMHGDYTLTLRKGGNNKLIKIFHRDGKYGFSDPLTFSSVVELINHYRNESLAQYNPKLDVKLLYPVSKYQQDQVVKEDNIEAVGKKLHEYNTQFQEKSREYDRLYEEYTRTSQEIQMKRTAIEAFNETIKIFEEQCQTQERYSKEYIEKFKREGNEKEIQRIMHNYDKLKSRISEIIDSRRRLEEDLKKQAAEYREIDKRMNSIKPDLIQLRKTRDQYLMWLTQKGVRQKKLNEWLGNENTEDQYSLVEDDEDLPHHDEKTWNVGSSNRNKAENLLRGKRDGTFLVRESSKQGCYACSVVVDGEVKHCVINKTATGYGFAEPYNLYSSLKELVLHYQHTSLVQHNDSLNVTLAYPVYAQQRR
T2 sequence (P42338 whole entry): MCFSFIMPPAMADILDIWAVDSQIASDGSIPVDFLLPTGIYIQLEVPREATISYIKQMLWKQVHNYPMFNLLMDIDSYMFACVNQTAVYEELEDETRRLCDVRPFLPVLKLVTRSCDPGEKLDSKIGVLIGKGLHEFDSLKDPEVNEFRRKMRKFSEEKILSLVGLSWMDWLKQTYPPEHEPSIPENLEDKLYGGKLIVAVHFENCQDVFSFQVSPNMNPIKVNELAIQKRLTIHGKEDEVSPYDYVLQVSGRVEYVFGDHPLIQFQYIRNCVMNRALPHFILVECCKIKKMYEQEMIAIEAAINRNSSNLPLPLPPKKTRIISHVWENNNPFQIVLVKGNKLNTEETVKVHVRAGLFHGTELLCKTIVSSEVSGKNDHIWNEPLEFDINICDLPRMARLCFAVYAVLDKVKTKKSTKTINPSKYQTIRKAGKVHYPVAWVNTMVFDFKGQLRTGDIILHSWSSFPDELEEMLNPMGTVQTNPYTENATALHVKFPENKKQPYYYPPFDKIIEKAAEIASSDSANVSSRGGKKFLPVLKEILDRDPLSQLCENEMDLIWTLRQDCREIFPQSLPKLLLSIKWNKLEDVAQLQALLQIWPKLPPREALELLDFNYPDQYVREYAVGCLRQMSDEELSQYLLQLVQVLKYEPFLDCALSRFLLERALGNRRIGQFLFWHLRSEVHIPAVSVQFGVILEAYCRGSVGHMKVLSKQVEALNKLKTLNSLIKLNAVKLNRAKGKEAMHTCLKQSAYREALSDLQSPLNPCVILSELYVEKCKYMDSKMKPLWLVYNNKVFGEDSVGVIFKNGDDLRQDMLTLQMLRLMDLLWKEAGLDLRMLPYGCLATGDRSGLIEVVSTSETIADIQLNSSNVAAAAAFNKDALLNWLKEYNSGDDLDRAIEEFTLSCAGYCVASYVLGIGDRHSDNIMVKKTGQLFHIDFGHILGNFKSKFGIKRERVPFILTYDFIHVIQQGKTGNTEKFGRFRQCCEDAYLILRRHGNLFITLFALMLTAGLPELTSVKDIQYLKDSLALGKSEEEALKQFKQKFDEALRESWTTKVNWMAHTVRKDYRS
T2 sequence (P27986 whole entry partner): as the sequence (P27986 whole entry partner, species assumed) above

| Molecule | IC50 (PI3K α) [nM] | IC50 (PI3K β) [nM] | IC50 [1, 2] [nM] | IC50 ([1]; Homo sapiens, HCT-116, read-out: HCT 116 pAKT IC50) [nM] | IC50 ([1]; HCT 116 cells, read-out: HCT 116 pAKT IC50) [nM] |
| --- | --- | --- | --- | --- | --- |
| CC(=O)Nc1nc2ccc(-c3cncc(Cl)n3)cc2s1 [Example 150, N-(6-(6-chloro-2-pyrazinyl)-1,3-benzothiazol-2-yl)acetamide] | 186 | 902 | 503 |  |  |
| CC(=O)Nc1nc2ccc(-c3cnc(Cl)c(NS(=O)(=O)c4ccc(OC(F)F)cc4)c3)cc2s1 [Example 182, N-(6-(6-chloro-5-(4-(difluoromethoxy)phenylsulfonamido)pyridin-3-yl)benzo[d]thiazol-2-yl)acetamide] | 6 | 6 | 24.9 |  |  |
| CC(=O)Nc1nc2ccc(-c3ccnc(OCc4ccncc4)n3)cc2s1 [Example 17, N-(6-(2-(4-pyridinylmethoxy)-4-pyrimidinyl)-1,3-benzothiazol-2-yl)acetamide] | 523 | 11100 | 1060 |  |  |
| CC(=O)Nc1nc2ccc(-c3ccnc(OC(C)C)n3)cc2s1 [Example 6, N-(6-(2-(1-methylethoxy)-4-pyrimidinyl)-1,3-benzothiazol-2-yl)acetamide] | 240 | 2140 | 920 |  |  |
| CCCS(=O)(=O)Nc1cc(-c2ccc3nc(NC(C)=O)sc3c2)cnc1Cl [Example 177, N-(6-(6-chloro-5-(propylsulfonamido)pyridin-3-yl)benzo[d]thiazol-2-yl)acetamide] | 15.4 | 34.9 | 36.3 |  |  |
| CN(C)c1cc(-c2ccc3nc(NC(=O)Oc4ccccc4)sc3c2)cnc1Cl [Example 270, Phenyl 6-(6-chloro-5-(dimethylamino)pyridin-3-yl)benzo[d]thiazol-2-ylcarbamate] | 34.6 | 2460 |  | > 5000 |  |
| CC(=O)Nc1nc2ccc(-c3ccnc(Sc4ccccc4F)n3)cc2s1 [Example 23, N-(6-(2-((2-fluorophenyl)sulfanyl)-4-pyrimidinyl)-1,3-benzothiazol-2-yl)acetamide] | 62.3 | 307 | 350 |  |  |
| CC(=O)Nc1nc2ccc(-c3ccnc(OCCCc4cccnc4)n3)cc2s1 [Example 1, N-(6-(2-(3-(pyridin-3-yl)propoxy)pyrimidin-4-yl)benzo[d]thiazol-2-yl)acetamide] |  | 3610 | 1350 |  |  |
| CC(=O)Nc1nc2ccc(-c3cnc(Cl)c(NS(=O)(=O)c4cccc(C(F)(F)F)c4)c3)cc2s1 [Example 172, N-(6-(6-chloro-5-(3-(trifluoromethyl)phenylsulfonamido)pyridin-3-yl)benzo[d]thiazol-2-yl)acetamide] |  | 6.9 | 7 |  |  |
| CC(=O)Nc1nc2ccc(-c3ccnc(NS(=O)(=O)c4ccccc4F)n3)cc2s1 [Example 81, N-(6-(2-(((2-fluorophenyl)sulfonyl)amino)-4-pyrimidinyl)-1,3-benzothiazol-2-yl)acetamide] |  | 103 | 4950 |  |  |
| CC(=O)Nc1nc2ccc(-c3ccnc(OCc4cccc(F)c4)n3)cc2s1 [Example 12, N-(6-(2-((3-fluorobenzyl)oxy)-4-pyrimidinyl)-1,3-benzothiazol-2-yl)acetamide] |  | 3960 | 3930 |  |  |
| CC(=O)Nc1nc2ccc(-c3ccnc(NS(=O)(=O)c4ccc(F)cc4)n3)cc2s1 [Example 80, N-(6-(2-(((4-fluorophenyl)sulfonyl)amino)-4-pyrimidinyl)-1,3-benzothiazol-2-yl)acetamide] |  | 405 | 3220 |  |  |
| CC(=O)Nc1nc2ccc(-c3ccnc(N(C)S(=O)(=O)c4ccc(C)cc4)n3)cc2s1 [Example 90, N-(6-(2-(N,4-Dimethylphenylsulfonamido)pyrimidin-4-yl)benzo[d]thiazol-2-yl)acetamide] |  | 48.8 | 51.6 |  |  |
| CC(=O)Nc1nc2ccc(-c3ccnc(NC(C)(C)c4ccccc4)n3)cc2s1 [Example 100] |  | 595 | 698 |  |  |
| CC(=O)Nc1nc2ccc(-c3cnc(Cl)c(NS(=O)(=O)c4ccccc4)c3)cc2s1 [Example 181, N-(6-(6-chloro-5-(phenylsulfonamido)pyridin-3-yl)benzo[d]thiazol-2-yl)acetamide] |  | 14.5 | 10.4 |  |  |
| N-(6-(2-(3-morpholino)propoxy)-4-pyrimidinyl)-1,3-benzothiazol-2-yl)acetamide [Example 10] |  | 11000 |  |  | 801 |
| CC(=O)Nc1nc2ccc(-c3cnc(Cl)c(NS(=O)(=O)c4cccc(F)c4)c3)cc2s1 [Example 183, N-(6-(6-chloro-5-(3-fluorophenylsulfonamido)pyridin-3-yl)benzo[d]thiazol-2-yl)acetamide] |  | 10.4 | 16.9 |  |  |
| CC(=O)Nc1nc2ccc(-c3ccnc(Sc4ccccc4C)n3)cc2s1 [Example 34, N-(6-(2-((2-methylphenyl)sulfanyl)-4-pyrimidinyl)-1,3-benzothiazol-2-yl)acetamide] |  | 1090 | 2160 |  |  |
| COc1ccc(S(=O)(=O)Nc2nccc(-c3ccc4nc(NC(C)=O)sc4c3)n2)cc1 [Example 78, N-(6-(2-(((4-methoxyphenyl)sulfonyl)amino)-4-pyrimidinyl)-1,3-benzothiazol-2-yl)acetamide] |  | 67.2 | 428 |  |  |
| CC(=O)Nc1nc2ccc(-c3ccnc(NS(=O)(=O)c4cccc(F)c4)n3)cc2s1 [Example 82, N-(6-(2-(((3-fluorophenyl)sulfonyl)amino)-4-pyrimidinyl)-1,3-benzothiazol-2-yl)acetamide] |  | 304 | 3900 |  |  |
| CC(=O)Nc1nc2ccc(-c3ccnc(N(C)S(=O)(=O)c4ccccc4F)n3)cc2s1 [Example 92, N-(6-(2-(2-Fluoro-N-methylphenylsulfonamido)pyrimidin-4-yl)benzo[d]thiazol-2-yl)acetamide] |  | 310 | 888 |  |  |

Continued, in another order:

| IC50 (PI3K α) [nM] | IC50 (PI3K β) [nM] | IC50 [1, 2] [nM] | Molecule | IC50 ([1]; Homo sapiens, HCT-116, read-out: HCT 116 pAKT IC50) [nM] | IC50 ([1]; HCT 116 cells, read-out: HCT 116 pAKT IC50) [nM] |
| --- | --- | --- | --- | --- | --- |
| 5 | 94.1 | 100 | CC(=O)Nc1nc2ccc(-c3cnc(Cl)c(O)c3)cc2s1 [Example 301, N-(6-(6-chloro-5-hydroxypyridin-3-yl)benzo[d]thiazol-2-yl)acetamide] |  |  |
| 19.6 | 33.2 | 915 | CC(=O)NC(C)(C)c1ccc(S(=O)(=O)Nc2cc(-c3ccc4nc(N)sc4c3)cnc2Cl)cc1 [Example 323, N-(1-(4-((5-(2-amino-1,3-benzothiazol-6-yl)-2-chloro-3-pyridinyl)sulfamoyl)phenyl)-1-methylethyl)acetamide] |  |  |
| 9.2 | 36.5 | 474 | CNc1nc2ccc(-c3cnc(Cl)c(NS(=O)(=O)c4c(Cl)cccc4Cl)c3)cc2s1 [Example 319, 2,6-dichloro-N-(2-chloro-5-(2-(methylamino)-1,3-benzothiazol-6-yl)-3-pyridinyl)benzenesulfonamide] |  |  |
| 64.7 | 294 | 244 | CC(=O)Nc1nc2ccc(-c3cccc(N(C)S(=O)(=O)c4cccc(C)c4)n3)cc2s1 [Example 225, N-(6-(6-(N,3-dimethylphenylsulfonamido)pyridin-2-yl)benzo[d]thiazol-2-yl)acetamide] |  |  |
| 250 |  | 1490 | CC(=O)Nc1nc2ccc(-c3cnc(Cl)c(F)c3)cc2s1 [Example 238, N-(6-(6-chloro-5-fluoropyridin-3-yl)benzo[d]thiazol-2-yl)acetamide] |  |  |
| 8370 |  | > 5000 | COc1cc(-c2ccc3nc(NC(C)=O)sc3c2)cnc1Br [Example 237, N-(6-(6-bromo-5-methoxypyridin-3-yl)benzo[d]thiazol-2-yl)acetamide] |  |  |
|  | 117 | 71.1 | COc1ccc(S(=O)(=O)Nc2cc(-c3ccc4nc(NC(C)=O)sc4c3)ccn2)cc1 [Example 217, N-(6-(2-(4-methoxyphenylsulfonamido)pyridin-4-yl)benzo[d]thiazol-2-yl)acetamide] |  |  |
|  | 8.1 | 5.9 | CC(=O)Nc1nc2ccc(-c3cnc(Cl)c(NS(=O)(=O)c4cccc(Cl)c4)c3)cc2s1 [Example 185, N-(6-(6-chloro-5-(3-chlorophenylsulfonamido)pyridin-3-yl)benzo[d]thiazol-2-yl)acetamide] |  |  |
|  | 7.4 | 11.5 | CC(=O)Nc1nc2ccc(-c3cnc(Cl)c(NS(=O)(=O)c4ccc(C(F)(F)F)cc4)c3)cc2s1 [Example 190, N-(6-(6-chloro-5-(4-(trifluoromethyl)phenylsulfonamido)pyridin-3-yl)benzo[d]thiazol-2-yl)acetamide] |  |  |
|  | 4.2 | 2.6 | CC(=O)Nc1nc2ccc(-c3cnc(Cl)c(NS(=O)(=O)c4ccc(C(C)(C)C)cc4)c3)cc2s1 [Example 191, N-(6-(5-(4-tert-butylphenylsulfonamido)-6-chloropyridin-3-yl)benzo[d]thiazol-2-yl)acetamide] |  |  |
